{"source": "ChEMBL document CHEMBL1122030", "about": "“2-Arylpyrazolo[4,3-c]quinolin-3-ones: novel agonist, partial agonist, and antagonist of benzodiazepines” (J Med Chem, 1982)", "key": {"[1]": {"biological_target": "GABA-A receptor; anion channel", "assay": "In vitro inhibition of binding to GABA-A central benzodiazepine-receptor of rat brain"}, "Rattus norvegicus [2]": {"tested_on": "Rattus norvegicus", "assay": "Antianxiety effect was assessed by the cook-davidson behavior test at 10 mg/kg of compound administered perorally.", "format": "functional", "details": "route oral"}, "Rattus norvegicus [3]": {"tested_on": "Rattus norvegicus", "assay": "Antianxiety effect was assessed by the cook-davidson behavior test at 1 mg/kg of compound administered perorally.", "format": "functional", "details": "route oral"}, "Rattus norvegicus [4]": {"species": "Rattus norvegicus", "assay": "Antianxiety effect was assessed by the cook-davidson behavior test", "format": "functional"}, "Rattus norvegicus [5]": {"tested_on": "Rattus norvegicus", "assay": "(§1) Effect on anti-convulsive 5.4 mg/kg Diazepam peroral dose in rats given 24 mg/kg iv metrazol, number of rats protected (of 6)", "format": "functional"}, "Rattus norvegicus [6]": {"tested_on": "Rattus norvegicus", "assay": "Antianxiety effect in cook-davidson behavior test at 10 mg/kg of compound administered perorally in rats expressed as mean percent change", "format": "functional", "details": "route oral"}, "Rattus norvegicus [7]": {"tested_on": "Rattus norvegicus", "assay": "Anticonvulsant efficacy when administered perorally was determined in rat metrazole anticonvulsant test; Calculated from responses at 1,3 and 10 mg/kg doses", "format": "functional", "details": "route oral"}, "Rattus norvegicus [8]": {"tested_on": "Rattus norvegicus", "assay": "Antianxiety effect was assessed by the cook-davidson behavior test at 3 mg/kg of compound administered perorally.", "format": "functional", "details": "route oral"}, "Rattus norvegicus [9]": {"tested_on": "Rattus norvegicus", "assay": "Antianxiety effect in cook-davidson behavior test at 3 mg/kg of compound administered perorally in rats expressed as mean percent change", "format": "functional", "details": "route oral"}, "Rattus norvegicus [10]": {"tested_on": "Rattus norvegicus", "assay": "Antianxiety effect in cook-davidson behavior test at 1 mg/kg of compound administered perorally in rats expressed as mean percent change", "format": "functional", "details": "route oral"}, "Rattus norvegicus [11]": {"tested_on": "Rattus norvegicus", "assay": "Antianxiety effect in cook-davidson behavior test at 30 mg/kg of compound administered perorally in rats expressed as mean percent change", "format": "functional", "details": "route oral"}, "Rattus norvegicus [12]": {"tested_on": "Rattus norvegicus", "assay": "Anticonvulsant efficacy when administered perorally was determined in rat metrazole anticonvulsant test", "format": "functional", "details": "po"}, "[13]": {"biological_target": "T1, GABA-A receptor; anion channel (Rattus norvegicus) (UniProt O09028+P15431+P18506+P18508+P19969+P20236+P23574+P23576+P28471+P28473+P30191+P62813+P63079+P63138+Q91ZM7+Q9ES14)", "description": "In vivo inhibition of binding to GABA-A central benzodiazepine-receptor after ip administration in rats"}, "[14]": {"biological_target": "T1, GABA-A receptor; anion channel (Rattus norvegicus)", "remark": "listed apart in the source", "description": "(§2) In vivo inhibition of binding to GABA-A central benzodiazepine-receptor after po administration in rats"}, "Rattus norvegicus [15]": {"tested_on": "Rattus norvegicus", "assay": "as §1", "format": "functional", "remark": "listed apart in the source"}, "Rattus norvegicus [16]": {"tested_on": "Rattus norvegicus", "assay": "as §1", "format": "functional", "remark": "listed apart in the source"}, "Rattus norvegicus [17]": {"tested_on": "Rattus norvegicus", "assay": "as §1", "format": "functional", "remark": "listed apart in the source"}, "Rattus norvegicus [18]": {"tested_on": "Rattus norvegicus", "assay": "Antianxiety effect was assessed by the cook-davidson behavior test at 30 mg/kg of compound administered perorally.", "format": "functional", "details": "route oral"}, "[19]": {"biological_target": "T1, GABA-A receptor; anion channel (Rattus norvegicus)", "remark": "listed apart in the source", "description": "as §2"}}, "note": "Values joined by “and” are separate entries in the source; they are usually repeats but may differ in a detail not shown here. Equal values may be shown once.", "data": [{"compound": "COc1ccc(-n2nc3c4ccccc4[nH]cc-3c2=O)cc1", "values": [{"measurement": "IC50", "setting": "[1]", "value": 0.1, "unit": "nM"}, {"measurement": "FR10 treated", "setting": "Rattus norvegicus [2]", "value": 100}, {"measurement": "FR10 treated", "setting": "Rattus norvegicus [3]", "value": 98}, {"measurement": "FR10 control", "setting": "Rattus norvegicus [4]", "value": "61 and 65 and 50"}, {"measurement": "No. of animals protected", "setting": "Rattus norvegicus [5]", "value": 4}, {"measurement": "VI30", "setting": "Rattus norvegicus [6]", "value": 5.7, "unit": "%"}, {"measurement": "ED50", "setting": "Rattus norvegicus [7]", "value": 2.81, "unit": "mg/kg"}, {"measurement": "FR10 treated", "setting": "Rattus norvegicus [8]", "value": 124}, {"measurement": "VI30", "setting": "Rattus norvegicus [9]", "value": 7.8, "unit": "%"}, {"measurement": "VI30", "setting": "Rattus norvegicus [10]", "value": 6.5, "unit": "%"}]}, {"compound": "O=C1C2C=Nc3ccccc3C2=NN1c1ccc(Cl)cc1", "note": "(stereo not given) [CGS-9896]", "values": [{"measurement": "IC50", "setting": "[1]", "value": 0.6, "unit": "nM"}, {"measurement": "FR10 treated", "setting": "Rattus norvegicus [2]", "value": 230}, {"measurement": "FR10 treated", "setting": "Rattus norvegicus [3]", "value": 217}, {"measurement": "FR10 control", "setting": "Rattus norvegicus [4]", "value": "67 and 112 and 81 and 73"}, {"measurement": "VI30", "setting": "Rattus norvegicus [6]", "value": 18.2, "unit": "%"}, {"measurement": "FR10 treated", "setting": "Rattus norvegicus [8]", "value": 234}, {"measurement": "VI30", "setting": "Rattus norvegicus [11]", "value": 7.5, "unit": "%"}, {"measurement": "ED50", "setting": "Rattus norvegicus [12]", "value": 0.9, "unit": "mg/kg"}, {"measurement": "VI30", "setting": "Rattus norvegicus [9]", "value": 10.2, "unit": "%"}, {"measurement": "VI30", "setting": "Rattus norvegicus [10]", "value": 0.1, "unit": "%"}, {"measurement": "ID50", "setting": "[13]", "value": 3.3, "unit": "mg/kg"}]}, {"compound": "O=C1C2C=Nc3ccccc3C2=NN1c1ccccc1", "note": "(stereo not given) [CGS-8216]", "values": [{"measurement": "IC50", "setting": "[1]", "value": 0.4, "unit": "nM"}, {"measurement": "ID50", "setting": "[14]", "value": 7.06, "unit": "mg/kg"}, {"measurement": "FR10 treated", "setting": "Rattus norvegicus [3]", "value": 87}, {"measurement": "No. of animals protected", "setting": "Rattus norvegicus [15]", "value": 0}, {"measurement": "No. of animals protected", "setting": "Rattus norvegicus [5]", "value": 5}, {"measurement": "No. of animals protected", "setting": "Rattus norvegicus [16]", "value": 1}, {"measurement": "VI30", "setting": "Rattus norvegicus [10]", "value": 0.1, "unit": "%"}, {"measurement": "No. of animals protected", "setting": "Rattus norvegicus [17]", "value": 0}]}, {"compound": "CN1C(=O)CN=C(c2ccccc2)c2cc(Cl)ccc21", "note": "[DIAZEPAM]", "values": [{"measurement": "FR10 treated", "setting": "Rattus norvegicus [2]", "value": 206}, {"measurement": "FR10 treated", "setting": "Rattus norvegicus [3]", "value": 97}, {"measurement": "FR10 treated", "setting": "Rattus norvegicus [18]", "value": 240}, {"measurement": "FR10 control", "setting": "Rattus norvegicus [4]", "value": "82 and 85 and 63 and 76"}, {"measurement": "VI30", "setting": "Rattus norvegicus [6]", "value": 3.6, "unit": "%"}, {"measurement": "ID50", "setting": "[19]", "value": 5, "unit": "mg/kg"}, {"measurement": "FR10 treated", "setting": "Rattus norvegicus [8]", "value": 131}, {"measurement": "VI30", "setting": "Rattus norvegicus [11]", "value": -23.8, "unit": "%"}, {"measurement": "ED50", "setting": "Rattus norvegicus [12]", "value": 4, "unit": "mg/kg"}, {"measurement": "VI30", "setting": "Rattus norvegicus [9]", "value": 6.1, "unit": "%"}, {"measurement": "VI30", "setting": "Rattus norvegicus [10]", "value": 5.9, "unit": "%"}]}]}
